Target: T1, Kir3.1/Kir3.4 (Homo sapiens, UniProt P48544+P48549)
T1 sequence (P48549 whole entry): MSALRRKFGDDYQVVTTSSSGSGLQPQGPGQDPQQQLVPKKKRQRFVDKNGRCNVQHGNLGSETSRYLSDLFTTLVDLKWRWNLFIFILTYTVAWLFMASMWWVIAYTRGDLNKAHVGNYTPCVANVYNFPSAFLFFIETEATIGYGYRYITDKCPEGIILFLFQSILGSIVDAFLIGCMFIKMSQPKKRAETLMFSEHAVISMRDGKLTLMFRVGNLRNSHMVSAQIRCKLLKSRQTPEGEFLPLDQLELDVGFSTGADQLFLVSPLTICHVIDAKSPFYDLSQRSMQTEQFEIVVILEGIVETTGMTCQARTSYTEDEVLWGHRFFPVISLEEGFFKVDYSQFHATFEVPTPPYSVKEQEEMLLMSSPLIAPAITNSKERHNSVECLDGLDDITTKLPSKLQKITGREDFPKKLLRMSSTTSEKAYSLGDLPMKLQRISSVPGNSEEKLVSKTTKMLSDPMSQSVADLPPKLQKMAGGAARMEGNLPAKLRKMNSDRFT
T1 sequence (P48544 whole entry): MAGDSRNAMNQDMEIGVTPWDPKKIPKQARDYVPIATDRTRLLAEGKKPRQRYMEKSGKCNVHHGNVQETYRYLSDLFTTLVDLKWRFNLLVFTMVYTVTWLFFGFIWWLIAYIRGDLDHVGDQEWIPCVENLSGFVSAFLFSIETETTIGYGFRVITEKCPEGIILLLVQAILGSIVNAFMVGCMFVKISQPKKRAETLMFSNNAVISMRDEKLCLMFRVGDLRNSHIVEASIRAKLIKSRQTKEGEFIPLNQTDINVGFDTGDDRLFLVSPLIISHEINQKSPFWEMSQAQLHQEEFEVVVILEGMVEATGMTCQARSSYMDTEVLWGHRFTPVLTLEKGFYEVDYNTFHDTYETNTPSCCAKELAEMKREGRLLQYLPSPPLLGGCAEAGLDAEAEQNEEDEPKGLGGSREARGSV
Assay: IonWorks Quattro system: Quattro is controlled using IonWorks v2 software to perform the following steps:a. Add 3.5 ul cells plus 3.5 ul external buffer to wells of Quattro Patch Plateb. Circulate amphotericin B and internal buffer onto cellsc. Apply the following voltage protocol: Pulse 1: 15 mV for 300 milliseconds (ms), followed by Pulse 2: −120 mV for 400 ms, then Pulse 3: −15 mV for 400 ms, and finally Pulse 4: −120 mV to 40 mV over 500 ms (this is a voltage ramp).d. Measure magnitude of inward potassium current at time point between 1200-1220 ms from start of Pulse 1 (i.e. during the voltage ramp phase).e. Add 3.5 ul of diluted compounds (or DMSO) to wells and repeat steps c-d (final compound concentrations are 50 uM to 0.1 uM, for potent compounds 0.5 uM to 0.01 uM and each concentration is tested in quadruplicate—i.e. in 4 separate wells).f. The difference between current magnitude pre vs. post-compound gives a measure of GIRK1/4 inhibition.7. Data analysis:IC50 values are calculated by plotting the percentage of current inhibition (normalized to the DMSO-only control) as a function of compound concentration using standard data analysis software.

IC50 | SMILES
99 nM | CS(=O)(=O)NCCOc1ncc(Cl)c2c1c(=O)cc(CO)n2-c1c(Cl)cccc1Cl
351 nM | O=c1cc(CO)n(-c2c(Cl)cccc2Cl)c2c(Cl)cnc(OCC(CO)CO)c12

Reference: ChEMBL document CHEMBL5729489, “Naphthyridinone derivatives and their use in the treatment of arrhythmia” (2022)
